Source: ChEMBL document CHEMBL1138902, “New 3-alkylamino-4H-thieno-1,2,4-thiadiazine 1,1-dioxide derivatives activate ATP-sensitive potassium channels of pancreatic beta cells” (J Med Chem, 2006)

Legend:
[1] = system: Rattus norvegicus; assay: Reduction in plasma insulin level in anaesthetized Sprague-Dawley rat at 3 mg/kg, iv; assay type: functional
[2] = system: Rattus norvegicus; assay: Reduction in plasma insulin level in po dosed Zucker obese rat after 2 hrs; assay type: functional; conditions: read-out: ID50 (the source's name)
[3] = system: Beta-TC3; assay: Repolarization of beta-TC3 cells; assay type: functional, cell-based, Mus musculus
[4] = species on record: Rattus norvegicus; assay: Inhibition of glucose-stimulated insulin release in Wistar rat islets; assay type: functional, organism-based
[5] = species on record: Rattus norvegicus; assay: Relaxation of precontracted Wistar rat aorta rings; assay type: functional, organism-based; conditions: for EC50: Rattus norvegicus, Aorta
[6] = target: T1, Sulfonylurea receptor 1, Kir6.2 (Homo sapiens, UniProt Q09428+Q14654); assay: Repolarization of HEK293 cells expressing Kir6.2/SUR1 KATP channels; assay type: functional, cell-based
[7] = system: Beta-TC6; assay: Inhibition of glucose-stimulated insulin release in betaTC6 cells; assay type: functional, cell-based; conditions: Mus musculus
[8] = system: Beta-TC6; assay: Inhibition of glucose-stimulated insulin release in beta-TC6 cells at 10 uM; assay type: functional, Mus musculus
[9] = Plasma concentration in Sprague-Dawley rat after 30 mins; assay type: ADME, organism-based
[10] = Cmax in Sprague-Dawley rat at 2.48 mg/kg, po; assay type: ADME, organism-based; design: dose 2.48 mg/kg, route oral; conditions: in vivo
[11] = Tmax in Sprague-Dawley rat at 2.48 mg/kg, po or 1.08 mg/kg, iv; assay type: ADME, organism-based; conditions: in vivo
[12] = Oral bioavailability in Sprague-Dawley rat at 2.48 mg/kg, po; assay type: ADME, organism-based; conditions: in vivo
[13] = Clearance in Sprague-Dawley rat at 2.48 mg/kg, po or 1.08 mg/kg, iv; assay type: ADME, organism-based; conditions: in vivo
[14] = Half life in Sprague-Dawley rat at 2.48 mg/kg, po; assay type: ADME, organism-based; design: dose 2.48 mg/kg, route oral; conditions: in vivo
[15] = Cmax in Sprague-Dawley rat at 2 mg/kg, po; assay type: ADME, organism-based; design: dose 2 mg/kg, route oral; conditions: in vivo
[16] = Tmax in Sprague-Dawley rat at 2 mg/kg, po or 0.5 mg/kg, iv; assay type: ADME, organism-based; conditions: in vivo
[17] = system: Rattus norvegicus; assay: Oral bioavailability in Sprague-Dawley rat at 2 mg/kg, po; assay type: ADME, organism-based; conditions: in vivo
[18] = Clearance in Sprague-Dawley rat at 2 mg/kg, po or 0.5 mg/kg, iv; assay type: ADME, organism-based; conditions: in vivo
[19] = Half life in Sprague-Dawley rat at 2 mg/kg, po; assay type: ADME, organism-based; design: dose 2 mg/kg, route oral; conditions: in vivo
[20] = target: T1, Sulfonylurea receptor 1, Kir6.2; assay: Displacement of [3H]glibenclamide from human Kir6.2/SUR1 expressed in HEK293 cells in presence of 2 mM ATP; assay type: cell-based
[21] = target: T1, Sulfonylurea receptor 1, Kir6.2; assay: Displacement of [3H]glibenclamide from human Kir6.2/SUR1 expressed in HEK293 cells; assay type: cell-based
[22] = Cmax in Sprague-Dawley rat at 2.3 mg/kg, po; assay type: ADME, organism-based; design: dose 2.3 mg/kg, route oral; conditions: in vivo
[23] = Tmax in Sprague-Dawley rat at 2.3 mg/kg, po or 1.24 mg/kg, iv; assay type: ADME, organism-based; conditions: in vivo
[24] = Oral bioavailability in Sprague-Dawley rat at 2.3 mg/kg, po; assay type: ADME, organism-based; conditions: in vivo
[25] = Clearance in Sprague-Dawley rat at 2.3 mg/kg, po or 1.24 mg/kg, iv; assay type: ADME, organism-based; conditions: in vivo
[26] = Half life in Sprague-Dawley rat at 2.3 mg/kg, po; assay type: ADME, organism-based; design: dose 2.3 mg/kg, route oral; conditions: in vivo
[27] = Cmax in Sprague-Dawley rat at 1.89 mg/kg, po; assay type: ADME, organism-based; design: dose 1.89 mg/kg, route oral; conditions: in vivo
[28] = Tmax in Sprague-Dawley rat at 1.89 mg/kg, po or 0.89 mg/kg, iv; assay type: ADME, organism-based; conditions: in vivo
[29] = Oral bioavailability in Sprague-Dawley rat at 1.89 mg/kg, po; assay type: ADME, organism-based; conditions: in vivo
[30] = Clearance in Sprague-Dawley rat at 1.89 mg/kg, po or 0.89 mg/kg, iv; assay type: ADME, organism-based; conditions: in vivo
[31] = Half life in Sprague-Dawley rat at 1.89 mg/kg, po; assay type: ADME, organism-based; design: dose 1.89 mg/kg, route oral; conditions: in vivo
[32] = Cmax in Sprague-Dawley rat at 2.19 mg/kg, po; assay type: ADME, organism-based; design: dose 2.19 mg/kg, route oral; conditions: in vivo
[33] = Tmax in Sprague-Dawley rat at 2.19 mg/kg, po or 1.22 mg/kg, iv; assay type: ADME, organism-based; conditions: in vivo
[34] = Oral bioavailability in Sprague-Dawley rat at 2.19 mg/kg, po; assay type: ADME, organism-based; conditions: in vivo
[35] = Clearance in Sprague-Dawley rat at 2.19 mg/kg, po or 1.22 mg/kg, iv; assay type: ADME, organism-based; conditions: in vivo
[36] = Half life in Sprague-Dawley rat at 2.19 mg/kg, po; assay type: ADME, organism-based; design: dose 2.19 mg/kg, route oral; conditions: in vivo
[37] = Mus musculus, Beta-TC3, read-out: EC50

T1 sequence (Q14654 whole entry): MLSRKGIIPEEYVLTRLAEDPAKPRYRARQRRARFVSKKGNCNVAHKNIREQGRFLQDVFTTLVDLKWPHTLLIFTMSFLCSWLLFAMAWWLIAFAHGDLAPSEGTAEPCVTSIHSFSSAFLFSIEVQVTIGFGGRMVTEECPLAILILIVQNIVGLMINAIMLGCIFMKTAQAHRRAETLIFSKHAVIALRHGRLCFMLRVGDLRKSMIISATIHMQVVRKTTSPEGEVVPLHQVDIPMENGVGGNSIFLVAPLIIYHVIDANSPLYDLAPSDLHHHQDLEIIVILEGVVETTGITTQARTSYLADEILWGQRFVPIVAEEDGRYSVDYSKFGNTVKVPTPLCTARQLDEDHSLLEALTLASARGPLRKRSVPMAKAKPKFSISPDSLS
T1 sequence (Q09428 whole entry): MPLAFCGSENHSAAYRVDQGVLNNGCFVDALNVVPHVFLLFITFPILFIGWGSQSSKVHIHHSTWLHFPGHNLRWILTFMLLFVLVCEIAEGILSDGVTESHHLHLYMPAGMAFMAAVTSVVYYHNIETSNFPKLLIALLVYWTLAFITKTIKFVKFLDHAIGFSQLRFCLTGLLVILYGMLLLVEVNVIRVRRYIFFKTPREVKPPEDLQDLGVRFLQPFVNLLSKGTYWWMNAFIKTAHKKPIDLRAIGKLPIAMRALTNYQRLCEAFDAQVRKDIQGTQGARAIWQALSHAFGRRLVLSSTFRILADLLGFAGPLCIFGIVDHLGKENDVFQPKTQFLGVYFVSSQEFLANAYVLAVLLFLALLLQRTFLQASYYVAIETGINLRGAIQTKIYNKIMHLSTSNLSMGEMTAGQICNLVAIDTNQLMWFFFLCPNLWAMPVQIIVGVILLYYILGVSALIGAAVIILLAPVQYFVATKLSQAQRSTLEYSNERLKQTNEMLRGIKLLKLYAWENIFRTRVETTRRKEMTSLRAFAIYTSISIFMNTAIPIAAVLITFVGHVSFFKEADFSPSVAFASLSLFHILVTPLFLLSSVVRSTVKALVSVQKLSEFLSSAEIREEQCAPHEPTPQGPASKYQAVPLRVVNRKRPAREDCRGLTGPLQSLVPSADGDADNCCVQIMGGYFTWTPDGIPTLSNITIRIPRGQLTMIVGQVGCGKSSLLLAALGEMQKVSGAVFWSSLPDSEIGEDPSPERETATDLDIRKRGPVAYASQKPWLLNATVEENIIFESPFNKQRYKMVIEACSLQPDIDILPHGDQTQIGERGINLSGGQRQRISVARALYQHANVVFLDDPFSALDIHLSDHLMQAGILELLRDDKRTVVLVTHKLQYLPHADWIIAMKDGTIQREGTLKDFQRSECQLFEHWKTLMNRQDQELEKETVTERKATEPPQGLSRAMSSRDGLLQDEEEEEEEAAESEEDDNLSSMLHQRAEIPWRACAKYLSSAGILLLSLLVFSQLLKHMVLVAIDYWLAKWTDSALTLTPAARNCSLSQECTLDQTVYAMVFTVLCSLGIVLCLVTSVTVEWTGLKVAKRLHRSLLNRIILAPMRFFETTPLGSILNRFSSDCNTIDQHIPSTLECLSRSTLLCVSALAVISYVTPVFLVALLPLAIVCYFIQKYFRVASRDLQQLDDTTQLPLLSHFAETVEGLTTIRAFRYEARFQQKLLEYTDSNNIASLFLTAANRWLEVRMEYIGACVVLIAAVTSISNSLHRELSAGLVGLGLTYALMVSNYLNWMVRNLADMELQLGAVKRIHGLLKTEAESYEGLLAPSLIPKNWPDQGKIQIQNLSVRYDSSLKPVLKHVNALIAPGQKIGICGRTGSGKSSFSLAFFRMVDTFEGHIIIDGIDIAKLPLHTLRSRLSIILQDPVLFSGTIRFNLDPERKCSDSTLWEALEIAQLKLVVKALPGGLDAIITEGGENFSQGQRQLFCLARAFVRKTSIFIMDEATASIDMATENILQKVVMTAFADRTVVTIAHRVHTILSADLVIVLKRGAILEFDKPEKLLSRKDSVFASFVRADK

| SMILES | EC50 [3, 37] | EC50 [5] | EC50 [7] | Efficacy [8] | also measured |
| --- | --- | --- | --- | --- | --- |
| CC1(NC2=NS(=O)(=O)c3sc(Br)cc3N2)CC1 | 0.14 µM | 133 µM | 0.31 µM | 81% | inhibition in vivo at 3 mg/kg [1]: 97%; ED50 [2]: < 3 mg/kg; EC50 [4]: 0.02 µM; EC50 [6]: 0.16 µM; concentration at 0.5 h [9]: 340 ng/mL; Cmax [10]: 885 ng/mL; Tmax [11]: 1.5 h; bioavailability [12]: 96%; clearance [13]: 15 mL/min/kg; half-life [14]: 2.6 h |
| CN1C(NC2(C)CC2)=NS(=O)(=O)c2sc(Cl)cc21 | – | – | 0.74 µM | 23% | EC50 ([3]; beta-tc3): Not Active |
| O=S1(=O)N=C(NC2(c3cccc(Cl)c3)CCC2)Nc2cc(Cl)sc21 | 0.16 µM | 13.9 µM | 13.4 µM | 40% | – |
| CC1=Nc2ccc(Cl)cc2S(=O)(=O)N1 [DIAZOXIDE] | 13.7 µM | – | 23 µM | 25% | inhibition in vivo at 3 mg/kg [1]: 53%; ED50 [2]: > 30 mg/kg; EC50 [4]: 20.3 µM; Cmax [15]: 1450 ng/mL; Tmax [16]: 1 h; F [17]: 154%; clearance [18]: 8 mL/min/kg; half-life [19]: 1.32 h |
| O=S1(=O)N=C(NCC(F)(F)F)Nc2cc(Cl)sc21 | 3.1 µM | 173 µM | 0.15 µM | 36% | – |
| C[C@H](NC1=NS(=O)(=O)c2sc(Cl)cc2N1)c1ccc(Br)cc1 | 2 µM | 95 µM | 2.07 µM | 69% | – |
| CC(C)(NC1=NS(=O)(=O)c2sc(Cl)cc2N1)c1ccccc1 | 0.13 µM | 103 µM | 0.24 µM | 76% | IC50 [20]: 0.081 µM; IC50 [21]: 360 µM; inhibition in vivo at 3 mg/kg [1]: 86%; ED50 [2]: 4 mg/kg; EC50 [4]: 0.04 µM; EC50 [6]: 0.18 µM; Cmax [22]: 2590 ng/mL; Tmax [23]: 0.25 h; bioavailability [24]: 82%; clearance [25]: 7.3 mL/min/kg; half-life [26]: 0.867 h |
| CC1(NC2=NS(=O)(=O)c3sc(Cl)cc3N2)CC1 [TIFENAZOXIDE] | – | – | 0.25 µM | 73% | inhibition in vivo at 3 mg/kg [1]: 85%; ED50 [2]: 1.5 mg/kg; Cmax [27]: 1230 ng/mL; Tmax [28]: 0.5 h; bioavailability [29]: 103%; clearance [30]: 7.02 mL/min/kg; half-life [31]: 4.17 h |
| CC1(NC2=NS(=O)(=O)c3scc(Br)c3N2)CC1 | – | – | 6.7 µM | 5% | EC50 ([3]; beta-tc3): Not Active |
| CC1(NC2=NS(=O)(=O)c3cc(Cl)sc3N2)CC1 | – | – | – | – | EC50 ([3]; beta-tc3): Not Active |
| O=S1(=O)NC(NC2(c3ccccc3)CC2)=Nc2cc(Cl)sc21 | 0.48 µM | 183 µM | 2.67 µM | 66% | EC50 [4]: 0.11 µM; EC50 [6]: 0.81 µM |
| COc1ccc(C2(NC3=NS(=O)(=O)c4sc(Cl)cc4N3)CC2)cc1 | 0.5 µM | 2.89 µM | 3.57 µM | 69% | – |
| O=S1(=O)N=C(NC2(C(F)(F)F)CC2)Nc2cc(Cl)sc21 | 0.4 µM | 40 µM | 1.4 µM | 76% | inhibition in vivo at 3 mg/kg [1]: 90%; ED50 [2]: 8 mg/kg; EC50 [4]: 0.16 µM; EC50 [6]: 0.53 µM; Cmax [32]: 533 ng/mL; Tmax [33]: 0.5 h; bioavailability [34]: 70%; clearance [35]: 5 mL/min/kg; half-life [36]: 5.5 h |
| CC1(NC2=NS(=O)(=O)c3scc(Cl)c3N2)CC1 | – | – | 0.28 µM | 2% | EC50 ([3]; beta-tc3): Not Active |
| C[C@@H](NC1=NS(=O)(=O)c2sc(Cl)cc2N1)c1ccccc1 | 0.5 µM | 24 µM | 0.99 µM | 68% | – |
| CC(C)NC1=NS(=O)(=O)c2cc(Cl)sc2N1 | 5 µM | > 300 µM | 19.8 µM | 16% | – |
| O=S1(=O)NC(NCc2ccccc2)=Nc2cc(Cl)sc21 | 3.6 µM | 133 µM | 6.11 µM | 30% | Emax ([3]; Mus musculus, Beta-TC3): < 60% |
| CC1(NC2=NS(=O)(=O)c3sccc3N2)CC1 | > 30 µM | 6.87 µM | 0.19 µM | 19% | Efficacy [5]: 18% |
| CC1(NC2=NS(=O)(=O)c3sc(Cl)cc3N2)CCC1 | 0.02 µM | – | 0.02 µM | 92% | – |
| C[C@H](NC1=NS(=O)(=O)c2sc(Cl)cc2N1)c1ccccc1 | 3.5 µM | 34.9 µM | 13 µM | 28% | Emax ([3]; Mus musculus, Beta-TC3): < 60% |
